Test results published in the NIST ThermoML archive (doi:10.1021/je060271a).
Several values for one entry are separate records, joined by “and”; a condition that tells them apart may be missing. Identical values can stand only once.

Settings: 283.15 K, Liquid, Vibrating tube method

CCCCCCCC(=O)OCC(COC(=O)CCCCCCC)(COC(=O)CCCCCCC)COC(=O)CCCCCCC [pentaerythritol tetraoctanoate]
Settings	mass density
105.3 kPa	970.3 kg/m3
105.5 kPa	970.3 kg/m3 and 970.4 kg/m3
105.6 kPa	970.3 kg/m3
105.8 kPa	970.4 kg/m3
106.7 kPa	970.3 kg/m3
110 kPa	970.3 kg/m3
125.3 kPa	970.3 kg/m3
155.9 kPa	970.3 kg/m3
203.3 kPa	970.4 kg/m3
224.9 kPa	970.3 kg/m3
235.2 kPa	970.4 kg/m3
246.6 kPa	970.5 kg/m3
262.8 kPa	970.4 kg/m3
277.9 kPa	970.4 kg/m3
295.3 kPa	970.4 kg/m3
319.3 kPa	970.4 kg/m3
342 kPa	970.5 kg/m3
369 kPa	970.5 kg/m3
405 kPa	970.4 kg/m3
438.1 kPa	970.4 kg/m3
468.4 kPa	970.6 kg/m3
495.5 kPa	970.6 kg/m3
514.6 kPa	970.6 kg/m3
534.1 kPa	970.6 kg/m3
557.4 kPa	970.6 kg/m3
575.1 kPa	970.6 kg/m3
593.5 kPa	970.7 kg/m3
616.6 kPa	970.7 kg/m3
636.3 kPa	970.5 kg/m3
653.5 kPa	970.7 kg/m3
671.5 kPa	970.7 kg/m3
693.4 kPa	970.7 kg/m3
713.6 kPa	970.7 kg/m3
734.1 kPa	970.7 kg/m3
760.8 kPa	970.8 kg/m3
784.3 kPa	970.7 kg/m3
808.6 kPa	970.7 kg/m3
834.5 kPa	970.7 kg/m3
866.8 kPa	970.7 kg/m3
896 kPa	970.7 kg/m3
926.4 kPa	970.8 kg/m3
962 kPa	970.8 kg/m3
986 kPa	970.9 kg/m3
1010.4 kPa	970.9 kg/m3
1035.5 kPa	970.8 kg/m3
1066.4 kPa	970.9 kg/m3
1094 kPa	970.9 kg/m3
1122.1 kPa	970.9 kg/m3
1158.4 kPa	971 kg/m3
1189.3 kPa	971 kg/m3
1219.2 kPa	971 kg/m3
1247.3 kPa	971 kg/m3
1270.1 kPa	971 kg/m3
1293 kPa	971 kg/m3
1317.3 kPa	971 kg/m3
1349.3 kPa	971.1 kg/m3
1370.1 kPa	971 kg/m3
1401.5 kPa	971 kg/m3
1428.9 kPa	971 kg/m3
1457.4 kPa	971 kg/m3
1492.1 kPa	971.2 kg/m3
1522.7 kPa	971.1 kg/m3
1554.3 kPa	971.1 kg/m3
1587.1 kPa	971.2 kg/m3
1627.7 kPa	971.1 kg/m3
1662.8 kPa	971.2 kg/m3
1700.3 kPa	971.2 kg/m3
1747.1 kPa	971.3 kg/m3
1789.7 kPa	971.2 kg/m3
1830.4 kPa	971.3 kg/m3
1873.1 kPa	971.3 kg/m3
1917.2 kPa	971.4 kg/m3
1972.4 kPa	971.4 kg/m3
2020.6 kPa	971.4 kg/m3
2068.2 kPa	971.4 kg/m3
2110.9 kPa	971.5 kg/m3
2137.9 kPa	971.4 kg/m3
2158.6 kPa	971.5 kg/m3
2179.8 kPa	971.5 kg/m3
2205.6 kPa	971.5 kg/m3
2227.8 kPa	971.7 kg/m3
2250.5 kPa	971.5 kg/m3
2273.6 kPa	971.6 kg/m3
2301.4 kPa	971.6 kg/m3
2325.3 kPa	971.7 kg/m3
2348.9 kPa	971.5 kg/m3
2373 kPa	971.7 kg/m3
2403 kPa	971.7 kg/m3
2427.5 kPa	971.6 kg/m3
2457.8 kPa	971.7 kg/m3
2484 kPa	971.6 kg/m3
2510.7 kPa	971.8 kg/m3
2543.2 kPa	971.8 kg/m3
2571.1 kPa	971.7 kg/m3
2600.6 kPa	971.7 kg/m3
2629 kPa	971.8 kg/m3
2663.7 kPa	971.7 kg/m3
2693.4 kPa	971.8 kg/m3
2723.9 kPa	971.8 kg/m3
2760.8 kPa	971.9 kg/m3
2792.7 kPa	971.8 kg/m3
2824.8 kPa	971.9 kg/m3
2857.6 kPa	971.9 kg/m3
2897.6 kPa	971.9 kg/m3
2931.4 kPa	971.9 kg/m3
2966.3 kPa	972 kg/m3
3008.8 kPa	972 kg/m3
3045.9 kPa	972.1 kg/m3
3082.4 kPa	972.1 kg/m3
3127.9 kPa	971.9 kg/m3
3166.3 kPa	972 kg/m3
3205 kPa	972.1 kg/m3
3245 kPa	972 kg/m3
3285.9 kPa	972.1 kg/m3
3335.9 kPa	972.2 kg/m3
3377.6 kPa	972.1 kg/m3
3420.8 kPa	972.2 kg/m3
3473.3 kPa	972.3 kg/m3
3517.6 kPa	972.2 kg/m3
3564.3 kPa	972.3 kg/m3
3620 kPa	972.3 kg/m3
3667.5 kPa	972.3 kg/m3
3715.9 kPa	972.5 kg/m3
3763.5 kPa	972.5 kg/m3
3809.1 kPa	972.5 kg/m3
3824.1 kPa	972.4 kg/m3
3841.3 kPa	972.6 kg/m3
3855.7 kPa	972.5 kg/m3
3869.7 kPa	972.6 kg/m3
3883.9 kPa	972.5 kg/m3
3899.8 kPa	972.5 kg/m3
4015.4 kPa	972.5 kg/m3
4176.4 kPa	972.7 kg/m3
4313.4 kPa	972.7 kg/m3
4335.2 kPa	972.8 kg/m3
4353.7 kPa	972.9 kg/m3
4372.3 kPa	972.8 kg/m3
4391.7 kPa	972.7 kg/m3
4414.3 kPa	972.8 kg/m3
4433.6 kPa	972.8 kg/m3
4453.1 kPa	972.8 kg/m3
4475.4 kPa	972.8 kg/m3
4475.5 kPa	972.8 kg/m3
4478.4 kPa	972.9 kg/m3
4490.5 kPa	972.9 kg/m3
4492.3 kPa	972.8 kg/m3
4499.1 kPa	972.9 kg/m3
